Data as given in patent publication US20250243196A1, “CITRON KINASE INHIBITORS” (The Cleveland Clinic Foundation, priority 2021, published 2025).

Columns and labels:
Test in all cases: KinaseProfiler panel
Type in all cases: biochemical
Conditions in all cases: activity remaining
MST1(h) = MST1(h) (Homo sapiens (Human), UniProt Q13043); set-up: dose or concentration left out as unconfirmed
cSRC(h) = cSRC(h) (Homo sapiens (Human), UniProt P12931); set-up: dose or concentration left out as unconfirmed
ErbB2(h) = ErbB2(h) (Homo sapiens (Human), UniProt P04626); set-up: dose or concentration left out as unconfirmed
Lyn(h) = Lyn(h) (Homo sapiens (Human), UniProt P07948); set-up: dose or concentration left out as unconfirmed
Snk(h) = Snk(h) (Homo sapiens (Human), UniProt Q9NYY3); set-up: dose or concentration left out as unconfirmed
PAK5(h) = PAK5(h) (Homo sapiens (Human), UniProt Q9P286); set-up: dose or concentration left out as unconfirmed
p70S6K(h) = p70S6K(h) (Homo sapiens (Human), UniProt P23443); set-up: dose or concentration left out as unconfirmed
SIK2(h) = SIK2(h) (Homo sapiens (Human), UniProt Q9H0K1); set-up: dose or concentration left out as unconfirmed
TrkB(h) = TrkB(h) (Homo sapiens (Human), UniProt Q16620); set-up: dose or concentration left out as unconfirmed
GSK3α(h) = GSK3α(h) (Homo sapiens (Human), UniProt P49840); set-up: dose or concentration left out as unconfirmed
PKCζ(h) = PKCζ(h) (Homo sapiens (Human), UniProt Q05513); set-up: dose or concentration left out as unconfirmed
CDK7/cyclinH/MAT1(h) = CDK7/cyclinH/MAT1(h) (Homo sapiens (Human), UniProt P50613); set-up: dose or concentration left out as unconfirmed
Flt4(h) = Flt4(h) (Homo sapiens (Human), UniProt P35916); set-up: dose or concentration left out as unconfirmed
MEK1(h) = MEK1(h) (Homo sapiens (Human), UniProt Q02750); set-up: dose or concentration left out as unconfirmed
Tie2 (h) = Tie2 (h) (Homo sapiens (Human), UniProt Q02763); set-up: dose or concentration left out as unconfirmed
LKB1(h) = LKB1(h) (Homo sapiens (Human), UniProt Q15831); set-up: dose or concentration left out as unconfirmed
mTOR(h) = mTOR(h) (Homo sapiens (Human), UniProt P42345); set-up: dose or concentration left out as unconfirmed
PKCη(h) = PKCη(h) (Homo sapiens (Human), UniProt P24723); set-up: dose or concentration left out as unconfirmed
MOK(h) = MOK(h) (Homo sapiens (Human), UniProt Q9UQ07)
NEK1(h) = NEK1(h) (Homo sapiens (Human), UniProt Q96PY6); set-up: dose or concentration left out as unconfirmed
NEK7(h) = NEK7(h) (Homo sapiens (Human), UniProt Q8TDX7); set-up: dose or concentration left out as unconfirmed
MAP4K3(h) = MAP4K3(h) (Homo sapiens (Human), UniProt Q8IVH8); set-up: dose or concentration left out as unconfirmed
EphA1(h) = EphA1(h) (Homo sapiens (Human), UniProt P21709); set-up: dose or concentration left out as unconfirmed
CaMKIδ(h) = CaMKIδ(h) (Homo sapiens (Human), UniProt Q8IU85); set-up: dose or concentration left out as unconfirmed
ZIPK(h) = ZIPK(h) (Homo sapiens (Human), UniProt O43293); set-up: dose or concentration left out as unconfirmed
NEK9(h) = NEK9(h) (Homo sapiens (Human), UniProt Q8TD19); set-up: dose or concentration left out as unconfirmed
FGFR1(h) = FGFR1(h) (Homo sapiens (Human), UniProt P11362); set-up: dose or concentration left out as unconfirmed
KDR(h) = KDR(h) (Homo sapiens (Human), UniProt P35968); set-up: dose or concentration left out as unconfirmed
CDK6/cyclinD3(h) = CDK6/cyclinD3(h) (Homo sapiens (Human), UniProt Q00534); set-up: dose or concentration left out as unconfirmed
DMPK(h) = DMPK(h) (Homo sapiens (Human), UniProt Q09013); set-up: dose or concentration left out as unconfirmed
CDK5/p35(h) = CDK5/p35(h) (Homo sapiens (Human), UniProt Q00535); set-up: dose or concentration left out as unconfirmed
c-RAF(h) = c-RAF(h) (Homo sapiens (Human), UniProt P04049); set-up: dose or concentration left out as unconfirmed
TAF1L(h) = TAF1L(h) (Homo sapiens (Human), UniProt Q8IZX4); set-up: dose or concentration left out as unconfirmed

Sequence of Tie2 (h) (Q02763 23-1124): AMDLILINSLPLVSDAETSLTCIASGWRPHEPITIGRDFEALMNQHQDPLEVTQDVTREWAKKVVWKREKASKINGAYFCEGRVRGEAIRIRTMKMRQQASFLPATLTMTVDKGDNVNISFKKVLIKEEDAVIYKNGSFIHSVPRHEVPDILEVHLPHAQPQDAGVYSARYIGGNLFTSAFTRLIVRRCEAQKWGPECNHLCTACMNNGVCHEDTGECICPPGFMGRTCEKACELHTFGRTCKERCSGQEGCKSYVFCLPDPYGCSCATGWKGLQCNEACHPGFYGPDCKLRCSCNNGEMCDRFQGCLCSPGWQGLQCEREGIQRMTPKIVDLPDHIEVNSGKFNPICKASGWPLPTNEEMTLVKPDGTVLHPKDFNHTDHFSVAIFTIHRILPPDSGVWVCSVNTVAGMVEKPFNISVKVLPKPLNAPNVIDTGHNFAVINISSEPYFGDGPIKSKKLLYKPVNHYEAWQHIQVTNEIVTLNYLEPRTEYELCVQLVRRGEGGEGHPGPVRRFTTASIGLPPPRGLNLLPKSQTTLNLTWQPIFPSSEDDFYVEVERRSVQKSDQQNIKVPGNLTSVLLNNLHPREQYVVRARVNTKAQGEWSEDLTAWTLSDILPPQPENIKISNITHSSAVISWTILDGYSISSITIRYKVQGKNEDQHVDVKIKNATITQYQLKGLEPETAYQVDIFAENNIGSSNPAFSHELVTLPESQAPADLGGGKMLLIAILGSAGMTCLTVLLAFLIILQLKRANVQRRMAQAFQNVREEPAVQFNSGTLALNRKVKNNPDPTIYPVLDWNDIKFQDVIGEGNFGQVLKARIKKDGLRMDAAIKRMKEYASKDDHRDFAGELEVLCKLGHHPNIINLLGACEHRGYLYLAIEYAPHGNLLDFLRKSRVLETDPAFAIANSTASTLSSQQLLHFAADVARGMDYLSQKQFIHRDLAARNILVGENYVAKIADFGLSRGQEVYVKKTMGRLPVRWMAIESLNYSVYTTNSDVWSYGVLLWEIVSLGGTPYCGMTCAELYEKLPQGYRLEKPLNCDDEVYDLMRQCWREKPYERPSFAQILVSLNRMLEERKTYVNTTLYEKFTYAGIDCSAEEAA
Sequence of CDK5/p35(h) (Q00535 whole entry): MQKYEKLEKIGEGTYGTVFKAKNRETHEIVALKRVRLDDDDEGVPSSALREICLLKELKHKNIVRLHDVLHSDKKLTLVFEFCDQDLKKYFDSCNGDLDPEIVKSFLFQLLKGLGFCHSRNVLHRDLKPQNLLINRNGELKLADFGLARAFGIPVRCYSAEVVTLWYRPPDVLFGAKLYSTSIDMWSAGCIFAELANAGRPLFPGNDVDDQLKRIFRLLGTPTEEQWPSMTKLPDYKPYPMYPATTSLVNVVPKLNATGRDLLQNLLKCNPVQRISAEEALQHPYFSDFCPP
Sequence of CDK5/p35(h) (Q15078 2-307 partner): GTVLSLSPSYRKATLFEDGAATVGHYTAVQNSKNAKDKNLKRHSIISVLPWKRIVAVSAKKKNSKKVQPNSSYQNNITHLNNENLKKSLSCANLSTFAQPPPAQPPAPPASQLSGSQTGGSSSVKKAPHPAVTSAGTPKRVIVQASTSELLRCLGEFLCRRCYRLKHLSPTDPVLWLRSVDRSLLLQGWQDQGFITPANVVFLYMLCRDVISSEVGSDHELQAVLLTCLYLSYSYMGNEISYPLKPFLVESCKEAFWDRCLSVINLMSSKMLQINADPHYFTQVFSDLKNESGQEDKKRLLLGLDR
Sequence of NEK7(h) (Q8TDX7 whole entry): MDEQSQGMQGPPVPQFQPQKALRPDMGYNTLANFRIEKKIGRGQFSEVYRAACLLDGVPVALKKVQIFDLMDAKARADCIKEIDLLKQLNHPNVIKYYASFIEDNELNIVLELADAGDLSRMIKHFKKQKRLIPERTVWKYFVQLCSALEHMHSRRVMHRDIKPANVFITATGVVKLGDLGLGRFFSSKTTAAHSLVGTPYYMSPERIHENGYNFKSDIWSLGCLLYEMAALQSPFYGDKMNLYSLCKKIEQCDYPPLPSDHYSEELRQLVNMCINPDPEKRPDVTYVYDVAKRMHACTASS
Sequence of FGFR1(h) (P11362 22-822): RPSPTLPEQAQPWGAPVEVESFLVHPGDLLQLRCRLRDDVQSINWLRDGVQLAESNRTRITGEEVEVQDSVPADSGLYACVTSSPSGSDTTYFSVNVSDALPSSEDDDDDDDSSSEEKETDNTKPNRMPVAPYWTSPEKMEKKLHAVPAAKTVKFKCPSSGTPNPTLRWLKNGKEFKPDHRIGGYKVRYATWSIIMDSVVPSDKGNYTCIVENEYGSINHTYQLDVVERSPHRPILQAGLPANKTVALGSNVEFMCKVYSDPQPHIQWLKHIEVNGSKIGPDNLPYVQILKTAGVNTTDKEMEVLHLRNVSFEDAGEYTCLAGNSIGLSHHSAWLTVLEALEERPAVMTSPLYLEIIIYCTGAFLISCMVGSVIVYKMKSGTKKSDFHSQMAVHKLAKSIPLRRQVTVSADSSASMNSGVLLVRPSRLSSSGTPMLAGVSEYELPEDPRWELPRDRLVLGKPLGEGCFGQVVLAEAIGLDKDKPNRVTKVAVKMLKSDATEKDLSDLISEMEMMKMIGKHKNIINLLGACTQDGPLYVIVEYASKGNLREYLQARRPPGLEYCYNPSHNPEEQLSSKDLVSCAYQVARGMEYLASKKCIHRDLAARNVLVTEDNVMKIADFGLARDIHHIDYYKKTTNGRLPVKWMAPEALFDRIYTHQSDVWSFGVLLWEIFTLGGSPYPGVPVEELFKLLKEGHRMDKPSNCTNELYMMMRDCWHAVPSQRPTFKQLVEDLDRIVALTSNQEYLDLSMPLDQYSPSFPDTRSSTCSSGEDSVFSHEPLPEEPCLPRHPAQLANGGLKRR
Sequence of PKCη(h) (P24723 whole entry): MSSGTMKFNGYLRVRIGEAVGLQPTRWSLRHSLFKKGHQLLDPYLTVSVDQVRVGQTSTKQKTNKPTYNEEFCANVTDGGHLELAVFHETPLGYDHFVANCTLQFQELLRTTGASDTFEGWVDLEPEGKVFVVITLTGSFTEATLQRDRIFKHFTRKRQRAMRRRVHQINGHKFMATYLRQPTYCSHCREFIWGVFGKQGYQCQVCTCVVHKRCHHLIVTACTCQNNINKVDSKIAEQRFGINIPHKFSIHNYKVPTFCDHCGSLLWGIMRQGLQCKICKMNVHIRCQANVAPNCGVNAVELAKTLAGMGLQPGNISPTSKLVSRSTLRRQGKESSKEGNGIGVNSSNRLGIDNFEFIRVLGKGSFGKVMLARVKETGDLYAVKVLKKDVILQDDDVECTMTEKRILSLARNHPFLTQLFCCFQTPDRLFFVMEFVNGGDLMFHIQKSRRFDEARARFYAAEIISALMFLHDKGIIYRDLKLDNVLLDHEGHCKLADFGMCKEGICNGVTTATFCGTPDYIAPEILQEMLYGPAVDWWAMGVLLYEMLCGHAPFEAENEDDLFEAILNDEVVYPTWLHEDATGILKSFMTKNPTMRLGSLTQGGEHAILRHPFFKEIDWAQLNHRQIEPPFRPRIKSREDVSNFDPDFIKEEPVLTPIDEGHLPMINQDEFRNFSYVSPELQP
Sequence of CDK7/cyclinH/MAT1(h) (P50613 whole entry): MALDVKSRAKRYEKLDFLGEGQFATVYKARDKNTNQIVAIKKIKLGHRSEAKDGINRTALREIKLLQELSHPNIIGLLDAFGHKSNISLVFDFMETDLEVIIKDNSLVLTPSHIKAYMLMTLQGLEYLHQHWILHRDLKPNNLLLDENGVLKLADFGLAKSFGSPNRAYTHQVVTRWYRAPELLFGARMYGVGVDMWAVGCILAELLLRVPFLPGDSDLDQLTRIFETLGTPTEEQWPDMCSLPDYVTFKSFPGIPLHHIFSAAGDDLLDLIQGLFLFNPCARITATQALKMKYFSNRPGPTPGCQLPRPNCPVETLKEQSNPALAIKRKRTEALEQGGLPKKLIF
Sequence of CDK7/cyclinH/MAT1(h) (P51946 whole entry partner): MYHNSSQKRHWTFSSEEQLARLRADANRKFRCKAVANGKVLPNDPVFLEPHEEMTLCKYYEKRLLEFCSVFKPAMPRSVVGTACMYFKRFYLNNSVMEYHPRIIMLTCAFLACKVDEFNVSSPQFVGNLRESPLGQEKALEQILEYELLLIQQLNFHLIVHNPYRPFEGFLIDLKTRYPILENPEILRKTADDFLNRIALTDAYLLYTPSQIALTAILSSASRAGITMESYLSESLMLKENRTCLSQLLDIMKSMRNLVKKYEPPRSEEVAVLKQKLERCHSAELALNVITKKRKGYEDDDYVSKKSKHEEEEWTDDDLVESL
Sequence of CDK7/cyclinH/MAT1(h) (P51948 whole entry partner): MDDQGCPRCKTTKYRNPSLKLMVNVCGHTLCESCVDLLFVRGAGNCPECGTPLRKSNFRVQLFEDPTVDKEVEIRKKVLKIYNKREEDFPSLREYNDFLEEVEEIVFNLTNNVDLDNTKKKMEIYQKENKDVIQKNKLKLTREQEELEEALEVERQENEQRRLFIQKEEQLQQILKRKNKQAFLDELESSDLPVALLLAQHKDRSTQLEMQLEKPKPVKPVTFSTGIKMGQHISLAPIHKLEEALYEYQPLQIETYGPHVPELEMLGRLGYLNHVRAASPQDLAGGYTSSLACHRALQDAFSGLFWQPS
Sequence of cSRC(h) (P12931 whole entry, looked up): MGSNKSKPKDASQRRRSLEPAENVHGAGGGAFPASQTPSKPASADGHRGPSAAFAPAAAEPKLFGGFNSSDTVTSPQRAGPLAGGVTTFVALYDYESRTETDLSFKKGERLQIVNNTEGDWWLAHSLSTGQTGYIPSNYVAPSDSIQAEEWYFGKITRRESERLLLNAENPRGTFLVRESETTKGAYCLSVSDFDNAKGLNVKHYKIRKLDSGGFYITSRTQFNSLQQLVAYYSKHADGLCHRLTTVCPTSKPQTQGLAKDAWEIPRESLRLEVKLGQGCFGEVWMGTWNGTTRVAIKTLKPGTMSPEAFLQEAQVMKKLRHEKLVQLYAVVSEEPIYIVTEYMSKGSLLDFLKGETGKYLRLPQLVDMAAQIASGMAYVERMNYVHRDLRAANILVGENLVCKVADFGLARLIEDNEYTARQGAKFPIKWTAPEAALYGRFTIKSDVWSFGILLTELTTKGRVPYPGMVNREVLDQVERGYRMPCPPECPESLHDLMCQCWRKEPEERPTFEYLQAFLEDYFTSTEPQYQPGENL

Cc1cc2c(-c3ccc(NC(=O)[C@H](N)CC(C)(C)C)cc3C)ccnc2[nH]1 [Compound F-90, (2R)-2-Amino-4,4-dimethyl-N-[3-methyl-4-(2-methyl-1H-pyrrolo[2,3-b]pyridin-4-yl)phenyl]pentanamide]
% Activity (MST1(h)): 76%
% Activity (cSRC(h)): 93%
% Activity (ErbB2(h)): 97%
% Activity (Lyn(h)): 80%
% Activity (Snk(h)): 94%
% Activity (PAK5(h)): 87%
% Activity (p70S6K(h)): 93%
% Activity (SIK2(h)): 109%
% Activity (TrkB(h)): 84%
% Activity (GSK3α(h)): 87%
% Activity (PKCζ(h)): 88%
% Activity (CDK7/cyclinH/MAT1(h)): 95%
% Activity (Flt4(h)): 96%
% Activity (MEK1(h)): 101%
% Activity (Tie2 (h)): 99%
% Activity (LKB1(h)): 99%
% Activity (mTOR(h)): 95%
% Activity (PKCη(h)): 118%
% Activity (MOK(h)): 90%
% Activity (NEK1(h)): 94%
% Activity (NEK7(h)): 88%
% Activity (MAP4K3(h)): 109%
% Activity (EphA1(h)): 92%
% Activity (CaMKIδ(h)): 89%
% Activity (ZIPK(h)): 94%
% Activity (NEK9(h)): 79%
% Activity (FGFR1(h)): 100%
% Activity (KDR(h)): 78%
% Activity (CDK6/cyclinD3(h)): 90%
% Activity (DMPK(h)): 93%
% Activity (CDK5/p35(h)): 79%
% Activity (c-RAF(h)): 106%
% Activity (TAF1L(h)): 101%
